Experimental data taken from PMC12516686, “Design of 2‑Aminobenzothiazole Derivatives Targeting Trypanosomatid PTR1 by a Multidisciplinary Fragment Hybridization Approach” (Journal of Medicinal Chemistry, 2025).
Where “and” joins values, the source holds several entries; their conditions need not be identical. Equal entries are not always repeated.

Legend:
[1] = system: THP-1-derived macrophages; test: Cytotoxicity assay (MTT) on THP-1-derived macrophages; type: cell-based, Human; conditions: THP-1 CC50 vs T. brucei EC50
Protocol: Human leukemia cell line THP-1 (ATCC TIB202) cells were cultured in RPMI-1640 medium supplemented with 10% heat-inactivated fetal bovine serum (FBS), 2 mM L-glutamine, 100 IU/mL penicillin/streptomycin, and 20 mM HEPES. The cell line was maintained in a humidified incubator at 37 °C with 5% CO2. Subcultures were performed every 3 days in 20 mL of media at a concentration of 2 × 10^5 cells/mL in a T75 flask. All cell culture reagents were purchased from Lonza Bioscience (Morrisville, NC).
The cytotoxicity of the compounds on THP-1-derived macrophages was assessed using the colorimetric MTT assay (3-(4,5-dimethylthiazol-2-yl)-2,5-diphenyl tetrazolium bromide) as described elsewhere. THP-1 cells were suspended in RPMI complete medium at a density of 1 × 10^6 cells/mL, and 100 μL/well was seeded in a 96-well plate. The cells were differentiated into macrophages by adding 40 ng/mL of phorbol-myristate 13-acetate (PMA, Sigma, Saint Louis, MI, USA) for 24 h, followed by replacement with fresh medium for another 24 h. Subsequently, the cells were incubated with 100 μL of compounds, ranging from 100 to 12.5 μM, diluted in RPMI complete medium. Each condition was tested in triplicate. After 72 h of incubation at 37 °C with 5% CO2, the medium was removed, and 200 μL of 0.5 mg/mL MTT solution diluted in RPMI was added. The plates were incubated for an additional 4 h, after which 160 μL of the media was removed and replaced with 160 μL of 2-propanol. Absorbance was read at 570 nm using a Synergy 2 Multi-Mode Reader (Biotek, Winooski, VT, USA). Cytotoxicity was evaluated by presenting the CC50 (the concentration of the drug that reduces cell viability by 50%) interval or by determining the CC50 value through nonlinear regression analysis using GraphPad Prism version 8.1.1 for Windows (GraphPad Software, San Diego, CA, USA). Results represent the average of at least three independent experiments.

LmPTR1 = target: T1, LmPTR1 (Leishmania major, UniProt Q01782); test: LmPTR1 indirect (cytochrome c-coupled) enzyme assay; type: biochemical; conditions: for IC50: indirect assay, triplicate, SD within ± 10% of the value
T1 sequence (Q01782 1-288): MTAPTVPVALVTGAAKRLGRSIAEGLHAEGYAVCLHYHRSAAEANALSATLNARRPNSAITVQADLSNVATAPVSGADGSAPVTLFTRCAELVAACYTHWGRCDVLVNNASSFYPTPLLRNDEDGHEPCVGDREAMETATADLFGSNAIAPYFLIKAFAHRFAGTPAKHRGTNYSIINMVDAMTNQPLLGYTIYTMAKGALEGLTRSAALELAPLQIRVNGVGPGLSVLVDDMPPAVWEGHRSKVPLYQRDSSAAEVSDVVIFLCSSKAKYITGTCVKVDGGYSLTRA
Protocol: The in vitro assays used in the current study were based on those reported in the literature. As PTR1 enzymes use dihydrobiopterin (H2B) as a substrate and also require NADPH for the reaction, the reduction of H2B to tetrahydrobiopterin by PTR1 is nonenzymatically linked with the reduction of cytochrome c in this assay, which is detected at 550 nm. The formation of cyt c Fe^2+ results in an increase in the photometric readout. TbPTR1 and LmPTR1 activity was assayed in a buffer containing 20 mM sodium citrate (pH 6.0). The final reaction mixture contained the test compound at a range of concentrations and TbPTR1/LmPTR1 (6.0 nM/12 nM), H2B (0.3 μM/3 μM), cytochrome c (100 μM/100 μM), and NADPH (500 μM/500 μM). The final assay volume was 50 μL in 384-well clear plates (Greiner Bio-One, 781101). Compound screening was performed by the addition of the compound to the assay plates (in 100% DMSO), followed by the addition of 45 μL Reaction Mix (enzyme, H2B cytochrome c in 20 mM sodium citrate buffer). A pre-read was made at 550 nm using an EnVision Multilabel Reader 2103 (PerkinElmer Inc., US), followed by incubation of the assay plates at 30 °C for 10 min. The reaction was initiated by the addition of 5 μL of NADPH (5 mM in ultrapure water) followed by kinetically reading the assay plates at 550 nm using the EnVision Multilabel Reader at 10, 20, 30, 40, and 50 min. The slope of each assay well was calculated. The screening data were analyzed using ActivityBase (IDBS), and for outlier elimination in the control wells, the 3-σ method was applied. Based on the slope, the data were normalized to the positive control methotrexate for TbPTR1/LmPTR1 (1 μM/50 μM, yielding 100% inhibition) and negative controls (1% DMSO, yielding 0% inhibition), and % inhibition was calculated for all samples. The measurement at time 0 min was used to flag optically interfering samples. Each compound was tested in triplicate, and the pIC50 value, standard deviation, Hill slope, and minimum and maximum signals for each dose–response curve were obtained using a 4-parameter logistic fit in the XE module of Activity Base (IDBS), as also reported previously. ,

SMILES	Selectivity index toward THP-1 cells [1]	inhibition at 50 µM (LmPTR1) [%]	IC50 (LmPTR1)
Nc1nc2ccc(C(=O)NCCc3ccc(Cl)c(Cl)c3)cc2s1 [Compound 1a, 2-amino-N-(3,4-dichlorophenethyl)benzo[d]thiazole-6-carboxamide]	over 16	21 ± 2	–
Nc1nc2ccc(C(=O)N(CCc3ccc(Cl)c(Cl)c3)C3CC3)cc2s1 [Compound 1b, 2-amino-N-cyclopropyl-N-(3,4-dichlorophenethyl)benzo[d]thiazole-6-carboxamide]	5−10	72 ± 4	39 µM and 38.9 µM
Nc1nc2ccc(C(=O)N(Cc3ccc(Cl)c(Cl)c3)C3CC3)cc2s1 [Compound 1c, 2-amino-N-cyclopropyl-N-(3,4-dichlorobenzyl)benzo[d]thiazole-6-carboxamide]	–	26 ± 5	–
Nc1nc2ccc(CN(Cc3ccc(Cl)c(Cl)c3)C3CC3)cc2s1 [Compound 1d, 6-((cyclopropyl(3,4-dichlorobenzyl)amino)methyl)benzo[_d_]thiazol-2-amine]	–	38 ± 4	–
Nc1nc2ccc(C(=O)N(CCc3ccc(Cl)c(Cl)c3)c3ccccc3)cc2s1 [Compound 1e, 2-amino-N-(3,4-dichlorophenethyl)-N-phenylbenzo[d]thiazole-6-carboxamide]	–	31 ± 2	–
Nc1nc2ccc(C(=O)NCCc3ccccc3)cc2s1 [Compound 2a, 2-amino-N-phenethylbenzo[d]thiazole-6-carboxamide]	–	35 ± 1	–
Nc1nc2ccc(C(=O)NCCc3cccc(Cl)c3)cc2s1 [Compound 2b, 2-amino-N-(3-chlorophenethyl)benzo[d]thiazole-6-carboxamide]	–	48 ± 2	91.4 µM
Nc1nc2ccc(C(=O)NCCc3ccc(Cl)cc3)cc2s1 [Compound 2c, 2-amino-N-(4-chlorophenethyl)benzo[d]thiazole-6-carboxamide]	–	32 ± 2	–
Nc1nc2ccc(C(=O)NCCc3cccc(Br)c3)cc2s1 [Compound 2d, 2-amino-N-(3-bromophenethyl)benzo[d]thiazole-6-carboxamide]	–	57 ± 2	–
Nc1nc2ccc(C(=O)NCCc3ccc(Br)cc3)cc2s1 [Compound 2e, 2-amino-N-(4-bromophenethyl)benzo[d]thiazole-6-carboxamide]	–	33 ± 1	78.8 µM
Nc1nc2ccccc2n1Cc1ccc(Cl)c(Cl)c1 [I, 1-(3,4-dichlorobenzyl)-1H-benzimidazol-2-amine, reference compound]	–	75 ± 1	–
